According to patent US20170239351A1, “Therapeutic Combinations of a BTK Inhibitor, a PI3K Inhibitor, a JAK-2 Inhibitor, a PD-1 Inhibitor, and/or a PD-L1 Inhibitor” (Acerta Pharma B.V., priority 2014, published 2017):

How the values were obtained:
[1] = system: KPC derived mouse pancreatic cancer cells; test: Orthotopic pancreatic cancer model (KPC-derived cells); assay type: in vivo, C57BL/6 mice; details: 15 mg/kg oral of each drug
Method: Orthotopic pancreatic cancer models in mice are clinically relevant, benefit from tissue site-specific pathology, and allow for study of metastasis. Qiu and Su, Methods Mol. Biol. 2013, 980, 215-223. A cell line derived from KrasG12D; Trp53R172H; Pdx1-Cre (KPC) mice was orthotopically implanted into the head of the pancreas after 35 passages. Based on the mice background from where the cell lines were generated, 1×10^6 cells were injected in C57BL/6 mice. Throughout the experiment, animals were provided with food and water ad libitum and subjected to a 12-h dark/light cycle. Animal studies were performed in accordance with the U.S. Public Health Service “Guidelines for the Care and Use of Laboratory Animals” (IACUC). After euthanization, pancreatic tumors were dissected out, weighed and single cell suspensions were prepared for flow cytometry analysis.
Results of the experiments are shown in FIG. 110, which illustrates tumor growth suppression in the orthotopic pancreatic cancer model. The statistical p-value (presumption against null hypothesis) is shown for each tested single active pharmaceutical ingredient and for the combination against the vehicle.
In this study, KrasG12D;Trp53R172H; Pdx1-Cre (KPC) derived mouse pancreatic cancer cells (10,000 cells) were injected into the pancreases of 24 female mice. After one week of expansion, drug treatment was started in mice developing pancreatic tumors.
Single cell suspensions from tumor samples were prepared as follows. Mouse tumor tissue was collected and stored in PBS/0.1% soybean trypsin inhibitor prior to enzymatic dissociation. […] Following surface staining, samples were acquired on a BD Fortessa and analyzed using FlowJo (Treestar) software.

relapsed/refractory CLL = details: cited from earlier work
B cell receptor = test: Whole blood B cell receptor signalling assay (anti-IgD, CD69 on CD19+ B cells); assay type: cell-based; details: 2 h incubation, anti-human IgD 18 h
Method: Blood from four healthy donors was incubated for 2 hours with the compounds shown over a concentration range, and then stimulated with anti-human IgD [10 μg/mL] for 18 hours. The mean fluorescent intensity (MFI) of CD69 (and CD86, data not shown) on gated CD19+ B cells was measured by flow cytometry.

[2] = system: regulatory T cell (Treg) development; test: Regulatory T cell (Treg) development; assay type: cell-based
Raji cells [3] = test: Antibody-dependent NK cell-mediated cytotoxicity, chromium release assay, Raji cells; assay type: cell-based; details: 1 μM, rituximab, effector:target 25:1, 4 hours
Raji cells [4] = test: Rituximab ADCC assay (51Cr release), healthy donor NK cells; assay type: cell-based, human; details: 1 μM
CD8^+ T cell function [5] = test: Cytotoxicity assay for CD8+ T cell function; assay type: cell-based; details: relative to vehicle
human platelets = test: GPVI (convulxin-induced) platelet aggregation; assay type: cell-based
Method: GPVI platelet aggregation was measured for Formula (XVIII) and Formula (XX-A) (ibrutinib). Blood was obtained from untreated humans, and platelets were purified from […] by centrifugation. Cells were resuspended to a final concentration of 350,000/μL in buffer containing 145 mmol/L NaCl, 10 mmol/L HEPES, 0.5 mmol/L Na2HPO4, 5 mmol/L KCl, 2 mmol/L MgCl2, 1 mmol/L CaCl2, and 0.1% glucose, at pH 7.4. Stock solutions of Convulxin (CVX) GPVI were prepared on the day of experimentation and added to platelet suspensions 5 minutes (37° C., 1200 rpm) before the induction of aggregation. Aggregation was assessed with a Chronolog Lumi-Aggregometer (model 540 VS; Chronolog, Havertown, Pa.) and permitted to proceed for 6 minutes after the addition of agonist. The results are reported as maximum percent change in light transmittance from baseline with platelet buffer used as a reference.
In FIG. 129, the results of CVX-induced (250 ng/mL) human platelet aggregation results before and 15 minutes after administration of the BTK inhibitors to 6 healthy individuals are shown.

CD8^+ T cell = test: CD8+ T cell viability; assay type: cell-based
CD8^+ T cell function [6] = test: IFN-γ level measurements for CD8+ T cell function; assay type: cell-based; details: relative to vehicle
[7] = system: human platelet-mediated thrombosis; parameters: species or system VWF HA1 mice (human platelets); details: in vivo
Method: […]. Injury to the vessel wall of arterioles ([…] diameter) was performed using a pulsed nitrogen dye laser (440 nm, Photonic Instruments) applied through a 20× water-immersion Olympus objective (LUMPlanF1, 0.5 numerical aperature (NA)) of a Zeiss Axiotech vario microscope. Human platelet and wall interactions were visualized by fluorescence microscopy using a system equipped with a Yokogawa CSU-22 spinning disk confocal scanner, iXON EM camera, and 488 nm and 561 nm laser lines to detect BCECF-labeled and rhodamine-labeled platelets, respectively (Revolution XD, Andor Technology). The extent of thrombus formation was assessed for 2 minutes after injury and the area (μm^2) of coverage determined (Image IQ, Andor Technology).
. The BTK inhibitor-treated human platelets were fluorescently labeled and infused continuously through a catheter inserted into the femoral artery. Their behavior in response to laser-induced vascular injury was monitored in real time using two-channel confocal intravital microscopy (Furie and Furie, J. Clin. Invest. 2005, 115(12), 2255-62). Upon induction of arteriole injury untreated platelets rapidly formed thrombi with an average thrombus size of […] (mean±s.e.m.), as shown in FIG. 124 and FIG. 125. […]. […]. […]

CD8^+ T cells [8] = test: CD8+ T cell viability (LIVE/DEAD staining, 4 days); assay type: cell-based
Method: Total T cells were plated on anti-TCR and anti-CD28 coated wells in the presence of both BTK inhibitors. Neutral culture conditions were used that will not polarize T cells to a helper lineage. The cells are grown for 4 days and are then stained with anti-CD4, anti-CD8 and LIVE/DEAD reagent to determine if the drugs have selective effects on either the CD4^+ or CD8^+ cells. Statistical significance was calculated using the Mann Whitney T-test. […]

CD8^+ T cells [9] = test: Cytotoxic T cell (CTL) assay; assay type: cell-based; details: 500 nM
Method: Without being bound by any theory, CD8^+ T cells have two primary effector functions: (1) produce large amounts of IFN-γ (which activates macrophages), and (2) cytolytic activity. […] The targets were B lymphoblasts from lipopolysaccharide (LPS) treated cultures. The assay was performed by incubating different ratios of effectors:targets for 4 hours.

NK cells = test: Antibody-stimulated NK cell degranulation (CD107a), flow cytometry; assay type: cell-based, human; details: DHL-4 target cells
T helper 17 (Th17) cells = test: Effect on T helper 17 (Th17) cells; assay type: cell-based
CD4^+ T cells = test: Th17 and Treg development from CD4+ T cells; assay type: cell-based
Method: Enriched CD4^+ T cells are plated on 24-well culture dishes that have been precoated 2 hr with 250 μL anti-TCRβ (0.5 μg/mL) plus anti-CD28 (5 μg/mL) at 37° C. in PBS. The cells are then supplemented with media containing BTK inhibitors along with the skewing cytokines as indicated in the following. The Th17 and Treg cultures are grown for 4 days before analysis. The cells are maintained for an additional 3 days with skewing cytokines (Th17; 20 ng/mL IL-6, 0.5 ng/mL TGF-β, 5 μg/mL IL-4, 5 μg/mL IFN-γ and Treg; 0.5 ng/mL TGF-β, 5 μg/mL IL-4, 5 μg/mL IFN-γ) and are supplemented with IL2 as a growth factor.

In the case of `C[C@H](Nc1ncnc2[nH]cnc12)c1cc2ccc(F)cc2nc1-c1ccccn1` [Formula (IX), (S)—N-(1-(7-fluoro-2-(pyridin-2-yl)quinolin-3-yl)ethyl)-9H-purin-6-amine, reference compound], the “tumor volume versus vehicle” value [1] is reported as “statistically significant reductions in tumor volume”.
For “obinutuzumab: type II glycoengineered CD20 monoclonal antibody”, the “Grade 3 IRRs” value (relapsed/refractory CLL; Phase 1 portion (n=13)) is listed as 15%, the “patients who experienced IRRs” value (relapsed/refractory CLL; Phase 1 portion (n=13)) is listed as “all patients” and the “IRR cases developing symptoms of hypotension” value (relapsed/refractory CLL; Phase 2 portion) is listed as 60%. For the same compound, the “hypotension cases that were Grade 3 reactions” value (relapsed/refractory CLL; Phase 2 portion) was 25%, the “patients who developed IRR” value (relapsed/refractory CLL; Phase 2 portion) was 95% and the response rate (relapsed/refractory CLL; monotherapy, Phase 1, previously treated CLL) was 62%.
In the case of `C=CC(=O)Nc1cccc(Nc2nc(Nc3ccc(OCCOC)cc3)ncc2F)c1` [CC-292], the EC50 (B cell receptor) is reported as 121 nM.
In the case of `C=CC(=O)N1CCC[C@@H](n2nc(-c3ccc(Oc4ccccc4)cc3)c3c(N)ncnc32)C1` [ibrutinib, 1-[(3R)-3-[4-amino-3-(4-phenoxyphenyl)-1H-pyrazolo[3,4-d]pyrimidin-1-yl]piperidin-1-yl]prop-2-en-1-one, reference compound], the “effect on Treg development” value [2] is reported as “strongly increases Treg development”, the “antibody-dependent NK cell-mediated cytotoxicity (percent lysis of tumor cells)” value (Raji cells [3]) is reported as “antagonizes antibody-dependent NK cell-mediated cytotoxicity” and the “effect on rituximab-mediated ADCC” value (Raji cells [4]) is reported as “strongly inhibited”. The “CD8+ T cell function as measured by % cytotoxicity” value (CD8^+ T cell function [5]) was “affects CD8^+ T cell function”, the GPVI platelet aggregation (human platelets) was “significantly inhibits GPVI platelet aggregation” and the “effect on CD8+ T cell viability” value (CD8^+ T cell) was “strongly affects CD8^+ T cell viability at higher doses”. The “CD8+ T cell function as measured by IFN-γ level” value (CD8^+ T cell function [6]) was “affects CD8^+ T cell function”, the “effect on thrombus formation” value [7] was “interfere with thrombus formation” and the “effect on CD8^+ T cell viability” value (CD8^+ T cells [8]) was “strong, negative effect on CD8^+ T cell viability”. The “CD8^+ T cell function as % cytotoxicity” value (CD8^+ T cells [9]) was “affects CD8^+ T cell function”, the “CD8^+ T cell function as IFN-γ levels” value (CD8^+ T cells [9]) was “significant loss of function” and the “inhibition of rituximab-stimulated NK cell degranulation” value (NK cells) was ~50%. For the same compound, the “effect on Th17 cells” value (T helper 17 (Th17) cells) was “strongly inhibits Th17 cells” and the “effect on Th17 and Treg development” value (CD4^+ T cells) was “profound inhibition of Th17 cells and an increase in Treg development”.
